Measured values taken from patent US20230174608A1, “Polypeptide Derivative Having Dual Receptor Agonistic Action and Use Thereof” (TIANJIN INSTITUTE OF PHARMACEUTICAL RESEARCH CO., LTD., priority 2020, published 2023).
Marks after values point to notes of the source that are not given here. Where a SMILES comes first, the peptide text is derived from it.

Experiments:
[1] = tested on: diet-induced obesity (DIO) mice; experiment: DIO model mice, weight after 2 weeks of administration; type: in vivo, C57BL/6N mice; settings: 30 nmol/kg s.c. once a day, 14 days
Description: Method: C57BL/6N mice were fed with H10060 high-fat diets to obtain diet-induced obesity (DIO) models, and mice in a control group (n=5) were fed with standard diets. One day before the first administration, the mice in the model group were randomly divided into 6 groups according to their weights (within a range of 40.5-50.5 g), i.e., a model control group, a positive control group, and test compound groups (dgc003, dgc004, dgc010, and dgc017), respectively, 5 mice in each group, which were administered once a day by subcutaneous injection. Saline was subcutaneously injected into each mouse in the blank control group and the model control group every day. The administration was performed for 14 days. The positive control drug and the test compounds were administered at a dose of 30 nmol/kg, and the administration volume for each group was 0.005 mL/g weight. The mice were weighed before each administration, and 72-h food intake was weighed every three days.

[2] = biological target: T1, GLP-1R (Homo sapiens, UniProt P43220); experiment: GLP-1 receptor-mediated cAMP production in vitro; type: cell-based; settings: HEK293 cell line stably expressing GLP-1R
T1 construct: expressed in transfected cells
T1 sequence (P43220 24-463, species assumed): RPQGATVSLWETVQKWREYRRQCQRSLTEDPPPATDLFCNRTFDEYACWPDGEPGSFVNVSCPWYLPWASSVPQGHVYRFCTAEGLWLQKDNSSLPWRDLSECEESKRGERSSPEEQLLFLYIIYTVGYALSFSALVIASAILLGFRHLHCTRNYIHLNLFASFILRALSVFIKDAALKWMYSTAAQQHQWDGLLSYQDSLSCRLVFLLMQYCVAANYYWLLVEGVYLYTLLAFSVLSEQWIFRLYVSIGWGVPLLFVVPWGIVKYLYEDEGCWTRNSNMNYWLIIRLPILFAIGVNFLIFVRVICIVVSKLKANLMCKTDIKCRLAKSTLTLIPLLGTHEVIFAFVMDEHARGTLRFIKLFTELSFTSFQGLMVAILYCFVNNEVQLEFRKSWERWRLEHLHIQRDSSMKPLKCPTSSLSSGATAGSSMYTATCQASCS
How it was run: (§1)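 HEK293 cells stably expressing human GLP-1R or GCGR are stimulated with compound for 30 min in the dark in serum-free medium with 0.5 mM IBMX, with test dilutions spanning 1 μM down to 10^−3 nM. cAMP is detected after a 60 min room-temperature reaction as the 665/615 nm ratio.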

[3] = tested on: glucose loaded normal mice; experiment: Glucose loading test on normal mice after single administration; type: in vivo, Kunming mice; settings: for Blood glucose reduction rate (%) / Blood glucose level after glucose loading: 30 nmol/kg single dose; for Blood glucose reduction rate (%): after glucose loading, versus model control group; for Blood glucose level after glucose loading: glucose 2.5 g/kg intragastric 60 min after administration, measured 30 min after loading; for Blood glucose level after glucose loading / Fasting blood glucose level: n=5; for Fasting blood glucose level: normal mice fasted 6 h, 30 nmol/kg group
How it was run: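 Male Kunming mice (20-22 g), 5 per group, fasted 6 h, received compound or semaglutide at 30 nmol/kg or saline. Glucose 2.5 g/kg given intragastrically 60 min post-dose; blood glucose measured 30 min after glucose loading.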

[4] = biological target: T2, GCGR (Homo sapiens, UniProt P47871); experiment: GC receptor-mediated cAMP production in vitro; type: cell-based; settings: HEK293 cell line stably expressing GCGR
T2 construct: expressed in transfected cells
T2 sequence (P47871 26-477, species assumed): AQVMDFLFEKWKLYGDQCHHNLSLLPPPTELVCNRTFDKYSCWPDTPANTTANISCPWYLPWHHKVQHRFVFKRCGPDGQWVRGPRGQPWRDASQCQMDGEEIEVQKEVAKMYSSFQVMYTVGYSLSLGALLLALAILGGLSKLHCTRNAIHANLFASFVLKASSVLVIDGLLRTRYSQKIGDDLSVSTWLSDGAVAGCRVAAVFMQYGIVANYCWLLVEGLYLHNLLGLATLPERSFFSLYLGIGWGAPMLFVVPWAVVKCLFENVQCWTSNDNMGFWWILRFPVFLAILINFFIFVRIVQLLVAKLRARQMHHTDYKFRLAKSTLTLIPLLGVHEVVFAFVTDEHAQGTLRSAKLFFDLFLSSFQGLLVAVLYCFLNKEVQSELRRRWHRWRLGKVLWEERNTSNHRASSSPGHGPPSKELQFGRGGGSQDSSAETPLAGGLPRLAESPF
How it was run: as §1

[5] = tested on: diet-induced obesity (DIO) mice; experiment: Obese (DIO) model mice, 23 days of successive administration; type: in vivo, C57BL/6J Gpt mice
Description: C57BL/6J Gpt mice (purchased from GemPharmatech (Jiangsu) Co., Ltd.) (6-8-week-old) were fed with H10060 high-fat diet (purchased from Beijing HFK Bioscience Co., Ltd.) to obtain diet-induced obesity (DIO) models, mice in a blank control group (n=5) were fed with standard diets, and all the mice were fed for 11 weeks after being purchased. One day before the first administration, the mice in the model group were randomly divided into 5 groups according to their weights (within a range of 39.5-49.5 g), i.e., a model control group, a positive control group, and test compound groups (dgc005, dgc016, and dgc020), respectively, 5 mice in each group, which were administered every day by subcutaneous injection. Saline was subcutaneously injected in the blank control group and the model control group every day. The administration was performed for 23 days. The positive control drug and the test compounds were administered at a dose of 30 nmol/kg, and the administration volume for each group was 0.005 mL/g weight. The mice were weighed before each administration, and 72-h food intake was weighed every three days. The mice fasted for 16 h before the last administration, fasting blood glucose levels were determined, blood was sampled from the orbital venous plexus to determine triglycerides and total cholesterol, and the liver was taken out for pathological section observation.
The liver of each C576L/6 mouse in the groups was fixed with 12% formaldehyde and prepared into a specimen, and the tissue block was repaired, dehydrated with graded alcohol, embedded in paraffin, stained with HE, and examined under a light microscope.

[6] = tested on: diet-induced obesity (DIO) mice; experiment: DIO mice, weight and blood glucose after multiple administrations at different doses; type: in vivo, C57BL/6N mice; settings: for Fasting blood glucose (mmol/L) before the last administration / Blood glucose level (mmol/L) 0.5 h after glucose loading / Glycemic load reduction rate: Day 22; for Fasting blood glucose (mmol/L) before the last administration: fasted 16 h; for Blood glucose level (mmol/L) 0.5 h after glucose loading: glucose 1 g/kg intragastric 30 min after administration; for Glycemic load reduction rate: versus model control group; for Reduction rate of weight without fasting on day 21 compared to day 0: n=5
Description: 40 C57BL/6N mice were purchased from Beijing Vital River Laboratory Animal Technology Co., Ltd. Mice in a model group (n=35) were fed with H10060 high-fat diets to obtain diet-induced obesity (DIO) models, mice in a blank control group (n=5) were fed with standard diets, and all the mice were fed for 36 weeks. On the day of the first administration, the mice in the model group were randomly divided into 7 groups according to their weights (within a range of 45-60 g), i.e., a model control group, positive control groups (semaglutide at doses of 10 nmol/kg and 30 nmol/kg, respectively), and test compound groups (dgc005 and dgc016 at doses of 10 nmol/kg and 30 nmol/kg, respectively), 5 mice in each group. The positive control drug and the test compounds were respectively subcutaneously injected into each mouse in the positive control groups and the test compound groups every day, saline was subcutaneously injected into each mouse in the blank control group and the model control group, and the administration was performed for 22 days (the administration volume for each group was 0.005 mL/g weight). The mice were weighed before each administration, and 72-h food intake was weighed every three days. The mice fasted for 16 h before the last administration, and 30 min after administration, a glucose solution (1 g/kg, the administration volume was 0.01 mL/g weight) was intragastrically administered to each mouse for glucose tolerance test. Blood glucose levels were determined 0.5 h after glucose loading.

[7] = after 23 days of administration, 30 nmol/kg s.c. daily, n=5

Compound	Weight decreasing rate by the last administration [1] [%]	EC50 [2] [nM]	Blood glucose reduction rate (%) [3] [%]	Blood glucose level after glucose loading [3]	Fasting blood glucose level [3] [mmol/L]	EC50 [4] [nM]	also measured
CCCCCCCCCCCCCCCC(=O)N[C@@H](CCC(=O)NCCCC[C@H](NC(=O)[C@H](C)NC(=O)[C@H](C)NC(=O)[C@H](CCCNC(=N)N)NC(=O)[C@H](CCC(=O)O)NC(=O)[C@H](CC(=O)O)NC(=O)[C@H](CC(C)C)NC(=O)[C@H](Cc1ccc(O)cc1)NC(=O)[C@H](CCCCN)NC(=O)[C@H](CO)NC(=O)[C@H](Cc1ccc(O)cc1)NC(=O)[C@H](CC(=O)O)NC(=O)[C@H](CO)NC(=O)[C@@H](NC(=O)[C@H](Cc1ccccc1)NC(=O)[C@@H](NC(=O)CNC(=O)[C@H](CCC(N)=O)NC(=O)C(C)(C)NC(=O)[C@@H](N)Cc1c[nH]cn1)[C@@H](C)O)[C@@H](C)O)C(=O)N[C@@H](CCC(=O)O)C(=O)N[C@@H](Cc1ccccc1)C(=O)N[C@H](C(=O)N[C@@H](C)C(=O)N[C@@H](Cc1c[nH]c2ccccc12)C(=O)N[C@@H](CC(C)C)C(=O)N[C@@H](CCC(=O)O)C(=O)N[C@@H](C)C(=O)NCC(=O)NCC(N)=O)[C@@H](C)CC)C(=O)O [dgc003] (HELM PEPTIDE1{H.[Aib].Q.G.T.F.T.S.D.Y.S.K.Y.L.D.E.R.A.A.K.E.F.I.A.W.L.E.A.G.G.[am]}|PEPTIDE2{[CCCCCCCCCCCCCCCC(=O)[*:2]].[gGlu]}$PEPTIDE1,PEPTIDE2,20:R3-2:R2$$$V2.0; N-terminus assumed)	16.7	0.291	48.12	8.82 ± 1.63 mmol/L	4.20 ± 0.97	1.04	
CCCCCCCCCCCCCCCC(=O)N[C@@H](CCC(=O)NCCCC[C@H](NC(=O)[C@H](C)NC(=O)[C@H](C)NC(=O)[C@H](CCCNC(=N)N)NC(=O)[C@H](CCC(=O)O)NC(=O)[C@H](CCC(=O)O)NC(=O)[C@H](CC(C)C)NC(=O)[C@H](Cc1ccc(O)cc1)NC(=O)[C@H](CCCCN)NC(=O)[C@H](CO)NC(=O)[C@H](Cc1ccc(O)cc1)NC(=O)[C@H](CC(=O)O)NC(=O)[C@H](CO)NC(=O)[C@@H](NC(=O)[C@H](Cc1ccccc1)NC(=O)[C@@H](NC(=O)CNC(=O)[C@H](CCC(N)=O)NC(=O)C(C)(C)NC(=O)[C@@H](N)Cc1c[nH]cn1)[C@@H](C)O)[C@@H](C)O)C(=O)N[C@@H](CCC(=O)O)C(=O)N[C@@H](Cc1ccccc1)C(=O)N[C@H](C(=O)N[C@@H](C)C(=O)N[C@@H](Cc1c[nH]c2ccccc12)C(=O)N[C@@H](CC(C)C)C(=O)N[C@@H](CCC(=O)O)C(=O)N[C@@H](C)C(=O)NCC(=O)NCC(N)=O)[C@@H](C)CC)C(=O)O [dgc004] (HELM PEPTIDE1{H.[Aib].Q.G.T.F.T.S.D.Y.S.K.Y.L.E.E.R.A.A.K.E.F.I.A.W.L.E.A.G.G.[am]}|PEPTIDE2{[CCCCCCCCCCCCCCCC(=O)[*:2]].[gGlu]}$PEPTIDE1,PEPTIDE2,20:R3-2:R2$$$V2.0; N-terminus assumed)	19.9	0.113	50.24	8.46 ± 2.28 mmol/L	3.42 ± 0.85	5.84	
CCCCCCCCCCCCCCCC(=O)N[C@@H](CCC(=O)N[C@@H](CCC(=O)NCCCC[C@H](NC(=O)[C@H](C)NC(=O)[C@H](C)NC(=O)[C@H](CCCNC(=N)N)NC(=O)[C@H](CCC(=O)O)NC(=O)[C@H](CCC(=O)O)NC(=O)[C@H](CC(C)C)NC(=O)[C@H](Cc1ccc(O)cc1)NC(=O)[C@H](CCCCN)NC(=O)[C@H](CO)NC(=O)[C@H](Cc1ccc(O)cc1)NC(=O)[C@H](CC(=O)O)NC(=O)[C@H](CO)NC(=O)[C@@H](NC(=O)[C@H](Cc1ccccc1)NC(=O)[C@@H](NC(=O)CNC(=O)[C@H](CCC(N)=O)NC(=O)C(C)(C)NC(=O)[C@@H](N)Cc1c[nH]cn1)[C@@H](C)O)[C@@H](C)O)C(=O)N[C@@H](CCC(=O)O)C(=O)N[C@@H](Cc1ccccc1)C(=O)N[C@H](C(=O)N[C@@H](C)C(=O)N[C@@H](Cc1c[nH]c2ccccc12)C(=O)N[C@@H](CC(C)C)C(=O)N[C@@H](CCC(=O)O)C(=O)N[C@@H](CO)C(=O)NCC(=O)NCC(N)=O)[C@@H](C)CC)C(=O)O)C(=O)O [dgc010] (HELM PEPTIDE1{H.[Aib].Q.G.T.F.T.S.D.Y.S.K.Y.L.E.E.R.A.A.K.E.F.I.A.W.L.E.S.G.G.[am]}|PEPTIDE2{[CCCCCCCCCCCCCCCC(=O)[*:2]].[gGlu].[gGlu]}$PEPTIDE1,PEPTIDE2,20:R3-3:R2$$$V2.0; N-terminus assumed)	16.4	0.537	52.35	8.10 ± 1.13 mmol/L	3.78 ± 0.84	0.614	
semaglutide [Positive control group, reference compound]	12.9		67.18	5.58 ± 1.55**^ mmol/L	3.78 ± 1.28		Fasting blood glucose (mmol/L) before the last administration ([5]; 30 nmol/kg s.c. daily, 23 days, fasted 16 h, n=5): 4.48 ± 0.84 mmol/L; Weight decreasing rate ([5]; 30 nmol/kg s.c. every day, without fasting before the last administration compared to day 1): 20.9%; Examination of liver pathological section ([5]; 23 days, 30 nmol/kg s.c. daily, HE stain, 2 animals): mild to moderate lesions; TC (total cholesterol) [5, 7]: 3.97 ± 0.52^Δ mmol/L; TG (triglycerides) [5, 7]: 0.90 ± 0.13**^ΔΔ mmol/L; 72-h food intake ([5]; day 4 of administration, 30 nmol/kg s.c. daily): 3.50 g/mouse; 72-h food intake ([5]; day 7 of administration, 30 nmol/kg s.c. daily): 5.80 g/mouse; 72-h food intake ([5]; day 10 of administration, 30 nmol/kg s.c. daily): 5.40 g/mouse; 72-h food intake ([5]; day 13 of administration, 30 nmol/kg s.c. daily): 5.50 g/mouse; Fasting blood glucose (mmol/L) before the last administration ([6]; 10 nmol/kg s.c. daily): 5.54 ± 1.11 mmol/L; Blood glucose level (mmol/L) 0.5 h after glucose loading ([6]; 10 nmol/kg s.c. daily): 7.06 ± 1.15 mmol/L; Glycemic load reduction rate ([6]; 10 nmol/kg s.c. daily): 32.89; Reduction rate of weight without fasting on day 21 compared to day 0 ([6]; 10 nmol/kg s.c. every day): 15.28%; Fasting blood glucose (mmol/L) before the last administration ([6]; 30 nmol/kg s.c. daily): 5.56 ± 0.91 mmol/L; Blood glucose level (mmol/L) 0.5 h after glucose loading ([6]; 30 nmol/kg s.c. daily): 8.20 ± 0.87 mmol/L; Glycemic load reduction rate ([6]; 30 nmol/kg s.c. daily): 22.05; Reduction rate of weight without fasting on day 21 compared to day 0 ([6]; 30 nmol/kg s.c. every day): 18.83%
